Results published in patent US8008329B2 (Dong Wha Pharmaceutical Co., Ltd., priority 2008, dated 2011).
Marks after values point to notes of the source that are not given here.

System: osteoclast differentiation
Assay: Osteoclast differentiation in co-culture of mouse bone marrow cells and ST2 cells, TRAP staining (Examples 8-9)
Type: cell-based
Details: for % number of osteoclast (vs. solvent control group): day 7; for activity at 0.1 µM: Mus musculus, Osteoclast, 168 h, day 7, read-out: % number of osteoclast (vs. solvent control group)
Outline: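 Bone marrow cells from 6-8-week male ddY mice were co-cultured with ST2 stromal cells under 10^−8 M vitamin D3 and 10^−8 M dexamethasone, with compounds at 0.1 μM final (0.1% DMSO control), refreshed on days 3 and 5. On day 7, TRAP-positive osteoclasts with ≥6 nuclei were counted and expressed as % of solvent control (n=4).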

[1] = Combination treatment (alendronic acid + compounds), 0.1 μM each
[2] = Combination treatment (risedronic acid + compounds), 0.1 μM each
[3] = Individual treatment (compounds), 0.1 μM

| SMILES | % number of osteoclast (vs. solvent control group) [1] | % number of osteoclast (vs. solvent control group) [2] | activity at 0.1 µM [3] [%] | % number of osteoclast (vs. solvent control group) [3] [%] |
| --- | --- | --- | --- | --- |
| CCN(CC)c1nc(-c2ccc(OCCCCCOc3ccc(C(=N)NO)cc3)cc2)c(C(C)C)s1 [Compound 162, N-hydroxy-4-{5-[4-(5-isopropyl-2-diethylamino-1,3-thiazol-4-yl)phenoxy]pentyloxy}-benzamidine] | 78 ± 1.8% | 61 ± 7.5^ac % | 98 ± 8.2 | – |
| Cc1nc(-c2ccc(OCCCCCOc3ccc(C(=N)NO)cc3)cc2)c(CNCC(C)C)s1 [Compound 299, N-hydroxy-4-(5-{4-[5-(isobutylamino-methyl)-2-methyl-thiazol-4-yl]-phenoxy}-pentyloxy)-benzamidine] | 14 ± 2.9^ab % | 11 ± 6.0^ac % | 40 ± 6.9 | – |
| CCc1sc(N(CCO)CCO)nc1-c1ccc(OCCCCCOc2ccc(C(=N)NO)cc2)cc1 [Compound 139, N-hydroxy-4-[5-(4-{2-[bis-(2-hydroxyethyl)amino]-5-ethyl-1,3-thiazol-4-yl}phenoxy)pentyloxy]-benzamidine] | 49 ± 7.8% | 38 ± 6.9^ac % | 64 ± 4.6 | – |
| Cc1nc(-c2ccc(OCCCCCOc3ccc(C(=N)NO)cc3)cc2)c(CN2CCCC2)s1 [Compound 304, N-hydroxy-4-{5-[4-(2-methyl-5-pyrolidin-1-ylmethyl-thiazol-4-yl)-phenoxy]-pentyloxy}-benzamidine] | 27 ± 6.4^ab % | 16 ± 4.5^ac % | – | 54 ± 6.4 |
| N=C(NO)c1ccc(OCCCCCOc2ccc(-c3nc(N(CCN4CCOCC4)Cc4ccccc4)sc3CCN3CCOCC3)cc2)cc1 [Compound 269, N-hydroxy-4-(5-{4-[2-[benzyl-(2-morpholin-4-yl-ethyl)-amino]-5-(2-morpholin-4-yl-ethyl)-thiazol-4-yl]-phenoxy}-pentyloxy)-benzamidine] | 23 ± 5.2^ab % | 17 ± 4.4^ac % | 38 ± 3.7 | – |
| CCc1nc(-c2ccc(OCCCCCOc3ccc(C(=N)NO)cc3)cc2)c(CC2CCCC2)s1 [Compound 46, N-hydroxy-4-{5-[4-(5-cyclopentylmethyl-2-ethyl-1,3-thiazol-4-yl)phenoxy]pentyloxy}-benzamidine] | 36 ± 5.1^ab % | 31 ± 8.5^ac % | 71 ± 9.4 | – |
| CCc1sc(C2CCCCC2)nc1-c1ccc(OCCCCOc2ccc(C(=N)NO)cc2)cc1 [Compound 196, N-hydroxy-4-{4-[4-(2-cyclohexyl-5-ethyl-thiazol-4-yl)-phenoxy]-butoxy}-benzamidine] | 37 ± 4.6^ab % | 42 ± 8.8^ac % | 68 ± 7.1 | – |
| Cc1nc(-c2ccc(OCCCCCOc3ccc(C(=N)N)cc3)cc2)c(C)s1 [Compound 54, 4-{5-[4-(2,5-dimethyl-1,3-thiazol-4-yl)phenoxy]pentyloxy}-benzamidine] | 20 ± 4.1^ab % | 19 ± 4.9^ac % | 41 ± 8.3 | – |
| CCCNc1nc(-c2ccc(OCCCCCOc3ccc(C(=N)NO)cc3)cc2)c(CC2CCCC2)s1 [Compound 111, N-hydroxy-4-{5-[4-(5-cyclopentylmethyl-2-propylamino-1,3-thiazol-4-yl)phenoxy]pentyloxy}-benzamidine] | 51 ± 6.0% | 32 ± 5.2^ac % | 76 ± 12.2 | – |
| CNc1nc(-c2ccc(OCCCCCOc3ccc(C(=N)NO)cc3)cc2)c(CCN2CCSCC2)s1 [Compound 262, N-hydroxy-4-(5-{4-[2-methylamino-5-(2-thiomorpholin-4-yl-ethyl)-thiazol-4-yl]-phenoxy}-pentyloxy)-benzamidine] | 24 ± 2.6^ab % | 7 ± 4.9^ac % | 47 ± 4.2 | – |
| N=C(NO)c1ccc(OCCCCCOc2ccc(-c3nc(C4CCCCC4)sc3CCN(C(=O)c3cccnc3)C3CC3)cc2)cc1 [Compound 281, N-hydroxy-4-{5-[4-(2-cyclohexyl-5-{2-[cyclopropyl-(pyridin-3-carbonyl)-amino]-ethyl}-thiazol-4-yl)-phenoxy]-pentyloxy}-benzamidine] | 22 ± 5.9^b % | 6 ± 2.5^ac % | 30 ± 7.6 | – |
| CCN(CC)c1nc(-c2ccc(OCCCCCOc3ccc(C(=N)NO)cc3)cc2)c(CCN2CCOCC2)s1 [Compound 270, N-hydroxy-4-(5-{4-[2-diethylamino-5-(2-morpholin-4-yl-ethyl)-thiazol-4-yl]-phenoxy}-pentyloxy)-benzamidine] | 28 ± 4.5^b % | 14 ± 2.1^ac % | 45 ± 6.9 | – |
| Cc1nc(-c2ccc(OCCCCCOc3ccc(C(=N)NO)cc3)cc2)c(CCN2CC(C)OC(C)C2)s1 (stereo not drawn) [Compound 227, N-hydroxy-4-[5-(4-{5-[2-(2,6-dimethyl-morpholin-4-yl)-ethyl]-2-methyl-thiazol-4-yl}-phenoxy)-pentyloxy]-benzamidine] | 24 ± 5.0^ab % | 17 ± 4.4^ac % | 42 ± 4.6 | – |
| N=C(NO)c1ccc(OCCCCCOc2ccc(-c3nc(N4CCOCC4)sc3C3CCCC3)cc2)cc1 [Compound 172, N-hydroxy-4-{5-[4-(5-cyclopentyl-2-morpholin-4-yl-1,3-thiazol-4-yl)phenoxy]pentyloxy}-benzamidine] | 33 ± 5.3^ab % | 26 ± 5.1^a % | 57 ± 5.1 | – |
| CN(C)CCc1sc(C2CCCCC2)nc1-c1ccc(OCCCCCOc2ccc(C(=N)NO)cc2)cc1 [Compound 250, N-hydroxy-4-(5-{4-[2-cyclohexyl-5-(2-dimethylamino-ethyl)-thiazol-4-yl]-phenoxy}-pentyloxy)-benzamidine] | 45 ± 5.2^b % | 12 ± 1.4^ac % | 52 ± 7.2 | – |
| N=C(NO)c1ccc(OCCCCCOc2ccc(-c3nc(-c4cccnc4)sc3Cc3ccccc3)cc2)cc1 [Compound 41, N-hydroxy-4-{5-[4-(5-benzyl-2-pyridin-3-yl-1,3-thiazol-4-yl)phenoxy]pentyloxy}-benzamidine] | 29 ± 5.0^b % | 31 ± 2.6^c % | 31 ± 9.4 | – |
| Cc1nc(-c2ccc(OCCCCCOc3ccc(C(=N)NO)cc3)cc2)c(CCN2CCN(C)CC2)s1 [Compound 232, N-hydroxy-4-[5-(4-{2-methyl-5-[2-(4-methyl-piperazin-1-yl)-ethyl]-thiazol-4-yl}-phenoxy)-pentyloxy]-benzamidine] | 39 ± 5.2^b % | 37 ± 4.9^c % | 47 ± 9.4 | – |
| CCc1sc(NS(=O)(=O)CC)nc1-c1ccc(OCCCCCOc2ccc(C(=N)NO)cc2)cc1 [Compound 95, N-hydroxy-4-{5-[4-(2-ethanesulphonylamino-5-ethyl-1,3-thiazol-4-yl)phenoxy]pentyloxy}-benzamidine] | 37 ± 10.3^ab % | 33 ± 6.8^ac % | 90 ± 5.4 | – |
